In patent US9615577B2, “Herbicidally active cyclic dione compounds, or derivatives therefor, substituted by a phenyl which has an alkynyl-containing substituent” (Syngenta Limited, priority 2012, dated 2017):

How the values were obtained:
Type in all cases: in vivo
[1] = system: Alopecurus myosuroides (ALOMY); test: Test 1A glasshouse assay for herbicidal activity, post-emergence; settings: 312 h, 250 g/ha, evaluated after 13 days, read-out: percentage phytotoxicity ALOMY
Outline: (§1)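 Seeds sown in standard soil were sprayed 1 day after sowing (pre-emergence) or after 8 days' growth (post-emergence) with the active ingredient in acetone/water (50:50) containing 0.5% Tween 20. Plants were kept in a glasshouse at 24/16 °C day/night, 14 h light, 65% humidity; phytotoxicity was scored visually after 13 days (0–100%).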

[2] = system: Amaranthus retroflexus (AMARE); test: as above; settings: 312 h, 250 g/ha, evaluated after 13 days, read-out: percentage phytotoxicity AMARE
Outline: as §1

[3] = system: Ipomoea hederacea (IPOHE); test: as above; settings: 312 h, 250 g/ha, evaluated after 13 days, read-out: percentage phytotoxicity IPOHE
Outline: as §1

Solanum nigrum (SOLNI) [4] = test: as above; settings: 312 h, 250 g/ha, evaluated after 13 days, read-out: percentage phytotoxicity SOLNI
Outline: as §1

[5] = system: Echinochloa crus-galli (ECHCG); test: as above; settings: 312 h, 250 g/ha, evaluated after 13 days, read-out: percentage phytotoxicity ECHCG
Outline: as §1

Setaria faberi (SETFA) [6] = test: as above; settings: 312 h, 250 g/ha, evaluated after 13 days, read-out: percentage phytotoxicity SETFA
Outline: as §1

[7] = system: Alopecurus myosuroides (ALOMY); test: Test 1A glasshouse assay for herbicidal activity, pre-emergence; settings: 312 h, 250 g/ha, evaluated after 13 days, read-out: percentage phytotoxicity ALOMY
Outline: as §1

[8] = system: Amaranthus retroflexus (AMARE); test: as above; settings: 312 h, 250 g/ha, evaluated after 13 days, read-out: percentage phytotoxicity AMARE
Outline: as §1

[9] = system: Ipomoea hederacea (IPOHE); test: as above; settings: 312 h, evaluated after 13 days, read-out: percentage phytotoxicity IPOHE
Outline: as §1

Solanum nigrum (SOLNI) [10] = test: as above; settings: 312 h, evaluated after 13 days, read-out: percentage phytotoxicity SOLNI
Outline: as §1

[11] = system: Echinochloa crus-galli (ECHCG); test: as above; settings: 312 h, 250 g/ha, evaluated after 13 days, read-out: percentage phytotoxicity ECHCG
Outline: as §1

Setaria faberi (SETFA) [12] = test: as above; settings: 312 h, 250 g/ha, evaluated after 13 days, read-out: percentage phytotoxicity SETFA
Outline: as §1

[13] = system: Amarantus retroflexus (AMARE); test: Biological Example 2 comparative herbicidal data, post-emergence glasshouse screen; settings: Amaranthus retroflexus, read-out: Post-emergence herbicidal activities (percentage phytotoxicity) AMARE
[14] = system: Alopecurus myosuroides (ALOMY); test: as above; settings: 312 h, read-out: Post-emergence herbicidal activities (percentage phytotoxicity) ALOMY
Outline: (§2)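 Plants grown 8 days in a glasshouse (24/16°C day/night, 14 h light, 65% humidity) were sprayed with compound in acetone/water (50:50) containing 0.5% Tween 20. They were kept under the same conditions and watered twice daily. Phytotoxicity was scored visually after 13 days (0 = no damage, 100 = total damage).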

[15] = system: Echinochloa crus-galli (ECHCG); test: as above; settings: 312 h, read-out: Post-emergence herbicidal activities (percentage phytotoxicity) ECHCG
Outline: as §2

Setaria faberi (SETFA) [16] = test: as above; settings: 312 h, read-out: Post-emergence herbicidal activities (percentage phytotoxicity) SETFA
Outline: as §2

[17] = system: Abutilon theophasti Medik. (ABUTH); test: Test 1A glasshouse assay for herbicidal activity, post-emergence; settings: 312 h, 250 g/ha, evaluated after 13 days, read-out: percentage phytotoxicity ABUTH
Outline: as §1

[18] = system: Digitaria sanguinalis (DIGSA); test: Biological Example 3 glasshouse assay for herbicidal activity, using various adjuvant systems, post-emergence; settings: 8 g/ha, 15 DAA, 0.5% v/v Adigor + 1.0% v/v AMS + 12.5% v/v IPA
Experimental: (§3) Post-emergence foliar spray application, 200 L/ha, usually one or two replicates for the weeds (depending on application rate), and two replicates for soybean.
(§4) Standard warm conditions (tropical), in glasshouse. Specifically, the glasshouse bay conditions are 24° C./18° C. day/night; 16/8 hours light/dark; 65% humidity.
(§5) The herbicidal application takes place at the following growth stages for plants which include inter alia one or more of the following plants (usually the herbicidal application takes place on at least the following six plants: DIGSA, ELEIN, SETFA, GLXMA Nikko, and GLXMA TMG133, and either BRADC or BRAPP):
Digitaria sanguinalis (DIGSA)—growth stage 12 or 13
(§6) Each test Compound is applied with one of the following adjuvant systems (all percentages are final concentrations in the aqueous spray mixture):
(§7) Adjuvant system 1: 0.5% v/v Adigor™ *, 1.0% v/v AMS (ammonium sulphate) and 12.5% v/v IPA (isopropyl alcohol).
(§8) Adjuvant system 2: 0.5% v/v Adigor™ * and 12.5% v/v IPA (isopropyl alcohol).
(§9) Adjuvant system 3: 0.5% v/v Hexamoll™ DINCH **, 1.0% v/v AMS (ammonium sulphate) and 12.5% v/v IPA (isopropyl alcohol).
Seeds of the weed plants, typically including inter alia [either Brachiaria decumbens (BRADC) or Brachiaria platyphylla (BRAPP)], Digitaria sanguinalis (DIGSA), Eleusine indica (ELEIN), Setaria faberi (SETFA) are sown in seed trays (troughs) containing clay loam soil (pH 7.0, 2.2% organic matter, “Trough Mix A”); and soybean seed is sown in pots containing the same soil with 3 soybean seedlings per pot. The plants are sprayed with the test herbicide when they reach the growth stages mentioned above. […]
(§10) A visual assessment of the % herbicidal damage is made 7 and 14 Days After herbicide Application (DAA) (or, in a minority of cases, 7 and 15 DAA), and the results are recorded as % visual herbicidal damage where 0%=no damage to plants and 100%=plant totally killed. […]

Setaria faberi (SETFA) [19] = test: as above; settings: 8 g/ha, 15 DAA, 0.5% v/v Adigor + 1.0% v/v AMS + 12.5% v/v IPA
Experimental: as §3, §4, §5
Setaria faberi (SETFA)—growth stage 12 or 13
as §6, §7, §8, §9
(§11) Seeds of the weed plants, typically including inter alia [either Brachiaria decumbens (BRADC) or Brachiaria platyphylla (BRAPP)], Digitaria sanguinalis (DIGSA), Eleusine indica (ELEIN), Setaria faberi (SETFA) are sown in seed trays (troughs) containing clay loam soil (pH 7.0, 2.2% organic matter, “Trough Mix A”); and soybean seed is sown in pots containing the same soil with 3 soybean seedlings per pot. The plants are sprayed with the test herbicide when they reach the growth stages mentioned above.
(§12) The test herbicidal solutions are prepared by mixing the appropriate aliquots of the test substance(s) and the adjuvant system indicated above *** in deionised water to give the desired treatment concentration. […]
as §10

Eleusine indica (ELEIN) = test: as above; settings: 8 g/ha, 15 DAA, 0.5% v/v Adigor + 1.0% v/v AMS + 12.5% v/v IPA
Experimental: as §3, §4, §5
Eleusine indica (ELEIN)—growth stage 12 or 13
as §6, §7, §8, §9, §11, §12, §10

[20] = system: Abutilon theophasti Medik. (ABUTH); test: Biological Example 2 comparative herbicidal data, post-emergence glasshouse screen; settings: read-out: Post-emergence herbicidal activities (percentage phytotoxicity) ABUTH
[21] = system: Abutilon theophasti Medik. (ABUTH); test: Test 1A glasshouse assay for herbicidal activity, pre-emergence; settings: 312 h, 250 g/ha, evaluated after 13 days, read-out: percentage phytotoxicity ABUTH
Outline: as §1

For `CC#Cc1cc(C)c(C2C(=O)C3CCC(C3)C2=O)c(CCC)c1` (centres unmarked) [Compound A-3], the pest or weed control at 250 g/ha [1] was 90%, the pest or weed control at 250 g/ha [2] was 10% and the pest or weed control at 250 g/ha [3] was 0%. For the same compound, the pest or weed control at 250 g/ha (Solanum nigrum (SOLNI) [4]) was 20%, the pest or weed control at 250 g/ha [5] was 100% and the pest or weed control at 250 g/ha (Setaria faberi (SETFA) [6]) was 90%. For the same compound, the pest or weed control at 250 g/ha [7] was 100%, the pest or weed control at 250 g/ha [8] was 0% and the pest or weed control at 250 g/ha [9] was 40%. It also gave a pest or weed control at 250 g/ha (Solanum nigrum (SOLNI) [10]) of 0%, a pest or weed control at 250 g/ha [11] of 100% and a pest or weed control at 250 g/ha (Setaria faberi (SETFA) [12]) of 100%.
For `C#Cc1cc(Cl)c(C2C(=O)CC3(CCOCC3)CC2=O)c(OC)c1` [Compound B-1, 9-(2-Chloro-4-ethynyl-6-methoxy-phenyl)-3-oxaspiro[5.5]undecane-8,10-dione], the pest or weed control at 8 g/ha ([13]; 8 g/ha application rate) was 0%, the pest or weed control at 30 g/ha ([13]; 30 g/ha application rate) was 0% and the pest or weed control at 8 g/ha ([14]; 8 g/ha application rate) was 10%. It also gave a pest or weed control at 30 g/ha ([14]; 30 g/ha application rate) of 70%, a pest or weed control at 8 g/ha ([15]; 8 g/ha application rate) of 20% and a pest or weed control at 30 g/ha ([15]; 30 g/ha application rate) of 80%. The pest or weed control at 8 g/ha (Setaria faberi (SETFA) [16]; 8 g/ha application rate) was 30%, the pest or weed control at 30 g/ha (Setaria faberi (SETFA) [16]; 30 g/ha application rate) was 70% and the pest or weed control at 250 g/ha [1] was 100%. The pest or weed control at 250 g/ha [2] was 0%, the pest or weed control at 250 g/ha [17] was 60% and the pest or weed control at 250 g/ha [5] was 100%. The pest or weed control at 250 g/ha (Setaria faberi (SETFA) [6]) was 100%, the “percentage control of Digitaria sanguinalis (DIGSA)” value [18] was 85% and the “percentage control of Setaria faberi (SETFA)” value (Setaria faberi (SETFA) [19]) was 50%. For the same compound, the “percentage control of Eleusine indica (ELEIN)” value (Eleusine indica (ELEIN)) was 20%, the pest or weed control at 8 g/ha ([20]; 8 g/ha application rate) was 0% and the pest or weed control at 30 g/ha ([20]; 30 g/ha application rate) was 10%. The pest or weed control at 250 g/ha [7] was 90%, the pest or weed control at 250 g/ha [8] was 20% and the pest or weed control at 250 g/ha [21] was 0%. For the same compound, the pest or weed control at 250 g/ha [11] was 100% and the pest or weed control at 250 g/ha (Setaria faberi (SETFA) [12]) was 80%.
